Values quoted from earlier work in PMC3538728 (PLoS ONE, 2013).
Read-outs that look alike come from different tables or passages of the source.

How the values were obtained:
[1] = cited from earlier work; for outcome in phase III clinical trials: relative to placebo
[2] = target: γ-secretase; design: method as in PMID 19694467, PMID 21141968, PMID 19402777, PMID 22323718, PMID 22798753; details: cited from earlier work
[3] = design: method as in PMID 19527190; details: early in preclinical studies; cited from earlier work

NC(=O)[C@@H](CCC(F)(F)F)N(Cc1ccc(-c2ncon2)cc1F)S(=O)(=O)c1ccc(Cl)cc1 [avagacestat]
outcome in phase II clinical studies ([1]; phase II): Dose dependent cognitive decline

CC(C)[C@H](O)C(=O)N[C@@H](C)C(=O)N[C@@H]1C(=O)N(C)CCc2ccccc21 [semagacestat]
IC50 [2]: ~20 nM
outcome in phase III clinical trials [1]: irreversibly advance cognitive decline
outcome in phase III clinical trials ([1]; listed as Semagacestat): toxic side-effects and irreversible cognitive decline
tolerance ([1]; preclinical studies and short phase I and phase II clinical trials): good tolerance

C[C@H](NC(=O)[C@@H](O)c1cc(F)cc(F)c1)C(=O)N[C@@H]1C(=O)N(C)c2ccccc2-c2ccccc21 [LY-411,575, N2-[(2S)-2-(3,5-difluorophenyl)-2-hydroxyethanoyl]-N1-[(7S)-5-methyl-6-oxo-6,7-di hydro-5H-dibenzo[b,d]azepin-7-yl]-L-alaninamide]
toxicity in preclinical studies [3]: toxic side-effects
